Reference: PubChem BioAssay AID1845200 (Molecular Pharmacology Branch, DTP, NCI, 2023)
Activity calls are given as the source filed them. Rule for the calls: active = viability on the fitted dose curve at most 10% of control; inactive = the rest.

Test system: ASPS-1 complex tumor spheroids, viability
Experiment: Anticancer human tumor ASPS-1 cell line growth inhibition;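 note: spheroids exposed to agents for 7 days after 3 days of growth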;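 for viability, T/C: 100% = DMSO vehicle treated spheroids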
Conditions: for IC50: curve of first compound; for viability, T/C: stronger effect = lower value
Method in brief: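 Single agents and combinations were tested on spheroids built from tumor cells plus HUVEC and hMSC, at half-log dilutions starting at or near clinical Cmax, else 10 microM; final DMSO 0.25% (v/v).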

[1] = second compound 1 µM, first compound 0.0949 µM
[2] = second compound 1 µM, first compound 0.3 µM
[3] = second compound 1 µM, first compound 0.949 µM
[4] = second compound 1 µM, first compound 3 µM
[5] = second compound 3.16 µM, first compound 0.0949 µM
[6] = second compound 3.16 µM, first compound 0.3 µM
[7] = second compound 3.16 µM, first compound 0.949 µM
[8] = second compound 3.16 µM, first compound 3 µM
[9] = second compound 10 µM, first compound 0.0949 µM
[10] = second compound 10 µM, first compound 0.3 µM
[11] = second compound 10 µM, first compound 0.949 µM
[12] = second compound 10 µM, first compound 3 µM
[13] = second compound 31.6 µM, first compound 0.0949 µM
[14] = second compound 31.6 µM, first compound 0.3 µM
[15] = second compound 31.6 µM, first compound 0.949 µM
[16] = second compound 31.6 µM, first compound 3 µM
[17] = second compound 100 µM, first compound 0.0949 µM
[18] = second compound 100 µM, first compound 0.3 µM
[19] = second compound 100 µM, first compound 0.949 µM
[20] = second compound 100 µM, first compound 3 µM

| Structure (SMILES) | IC50 (second compound 1 µM) [µM] | IC50 (second compound 3.16 µM) [µM] | IC50 (second compound 10 µM) [µM] | IC50 (second compound 31.6 µM) [µM] | IC50 (second compound 100 µM) [µM] | viability, T/C [1] [%] | viability, T/C [2] [%] | viability, T/C [3] [%] | viability, T/C [4] [%] | viability, T/C [5] [%] | viability, T/C [6] [%] | viability, T/C [7] [%] | viability, T/C [8] [%] | viability, T/C [9] [%] | viability, T/C [10] [%] | viability, T/C [11] [%] | viability, T/C [12] [%] | viability, T/C [13] [%] | viability, T/C [14] [%] | viability, T/C [15] [%] | other results |
| --- | --- | --- | --- | --- | --- | --- | --- | --- | --- | --- | --- | --- | --- | --- | --- | --- | --- | --- | --- | --- | --- |
| Cn1ncnc1[C@H]1c2n[nH]c(=O)c3cc(F)cc(c23)N[C@@H]1c1ccc(F)cc1 + Cn1nnc2c(C(N)=O)ncn2c1=O | > 3 | > 3 | > 3 | > 3 | > 3 | 97.5 | 103 | 96.3 | 74.1 | 96.2 | 95.8 | 91.1 | 67.8 | 80.1 | 83.4 | 71.7 | 61.1 | 76 | 67 | 56.5 | viability, T/C (second compound 1 µM, first compound 0.00949 µM): 98.8%; viability, T/C (second compound 1 µM, first compound 0.03 µM): 98.9%; viability, T/C (second compound 3.16 µM, first compound 0.00949 µM): 99.7%; viability, T/C (second compound 3.16 µM, first compound 0.03 µM): 95%; viability, T/C (second compound 10 µM, first compound 0.00949 µM): 86.2%; viability, T/C (second compound 10 µM, first compound 0.03 µM): 89.6%; viability, T/C (second compound 31.6 µM, first compound 0.00949 µM): 78.5%; viability, T/C (second compound 31.6 µM, first compound 0.03 µM): 76.3%; viability, T/C [16]: 53.2%; viability, T/C (second compound 100 µM, first compound 0.00949 µM): 56.4%; viability, T/C (second compound 100 µM, first compound 0.03 µM): 50.8%; viability, T/C [17]: 52.2%; viability, T/C [18]: 58.7%; viability, T/C [19]: 54.5%; viability, T/C [20]: 50.8% |
| O=C(c1cc(Cc2n[nH]c(=O)c3ccccc23)ccc1F)N1CCN(C(=O)C2CC2)CC1 + Cn1nnc2c(C(N)=O)ncn2c1=O | > 30 | > 30 | > 30 | > 30 | 3.4 | 94.4 | 83.3 | 92.6 | 82.5 | 97.6 | 94.2 | 115 | 95.6 | 85.8 | 82.4 | 82.8 | 78.1 | 78.8 | 70.5 | 81.9 | viability, T/C (second compound 1 µM, first compound 9.49 µM): 95.6%; viability, T/C (second compound 1 µM, first compound 30 µM): 79.2%; outcome (second compound 3.16 µM, first compound 9.49 µM): inactive; viability, T/C (second compound 3.16 µM, first compound 30 µM): 76%; viability, T/C (second compound 10 µM, first compound 9.49 µM): 76.7%; viability, T/C (second compound 10 µM, first compound 30 µM): 75.5%; viability, T/C [16]: 72.3%; viability, T/C (second compound 31.6 µM, first compound 9.49 µM): 72.4%; viability, T/C (second compound 31.6 µM, first compound 30 µM): 58.6%; viability, T/C [17]: 68.7%; viability, T/C [18]: 61.1%; viability, T/C [19]: 51%; viability, T/C [20]: 54.3%; viability, T/C (second compound 100 µM, first compound 9.49 µM): 44.3%; viability, T/C (second compound 100 µM, first compound 30 µM): 49.1% |
